Reference: patent publication US20180369258A1, “ANTI-BACTERIAL COMPOUNDS BASED ON AMINO-GOLD PHOSPHINE COMPLEXES” (priority 2015, published 2018)

Assays:
Type in all cases: cell-based
V. cholerae = test: In vitro growth inhibition of V. cholerae (MIC); conditions: background statement for auranofin
[1] = test system: S. aureus (Oxford strain); test: Growth assay for S. aureus (MIC); conditions: background statement for auranofin
Description: Stock solution of the test compounds (20 mg/ml) in dimethyl sulfoxide (DMSO) were serially diluted in DMSO and each diluted compound added in duplicate to a 96-well plate to a final DMSO concentration of 2% (v/v). An overnight culture of S. aureus (Oxford strain) grown in tryptic soy broth (TSB) was diluted to approximately 5×10^7 cfu/ml and 150 μl of this sample was added to each well of the 96-well plates. Control wells included an ‘untreated’ control with bacteria in TSB in the presence of 2% DMSO and a negative sample (containing 150 μl TSB growth media in the presence of 2% DMSO). Plates were incubated in a shaking incubator at 37° C. for 22-24 hours and bacterial growth assessed by absorbance at a wavelength of 595 nm. The minimum inhibitory concentration (MIC) was defined as the lowest concentration of compound that inhibited growth compared to the no-treatment control.

A. baumannii NC13421 = test: Disk diffusion assay, multidrug resistant clinical isolate
Description: (§1) The activity of test compounds against multi-drug resistant bacterial strains was assessed by the disk diffusion assay; a standardised method to assess for the antimicrobial susceptibility of microorganisms (adapted from EUCAST, Version 5, January 2015). In brief, bacterial cultures were suspended in phosphate buffer and spread evenly onto blood agar plates. Cellulose disks (5 mm) were placed onto the agar plates and 3 μl test compound (60 μg/disk) were pipetted to the centre. A panel of standard antibiotics disks (Sigma) were used to control for the antimicrobial resistance profile of the individual strains (quantity as indicated in the table). The plates were then placed into a thermo-incubator and were cultured at 37° C. over-night. Activity was recorded by measuring the zone of clearance (mm) around the disks.

E. coli 13400 = test: as above
Description: as §1

E. faecalis DSM13591 = test: as above
Description: as §1

K. pneumoniae 13368 = test: as above
Description: as §1

[2] = test system: human hepatocyte cell line (HepG2); test: HepG2 cell inhibition assay (CCK-8 viability); conditions: 50% growth inhibition vs untreated control, 24 hours
Description: Cell counting kit-8 (Sigma, CCK-8) assays were performed to assess the effect of compounds on cell viability. The assay is based on the reduction of a water-soluble tetrazolium salt (WST-8) by cellular dehydrogenases to a formazan dye which can be detected spectroscopically. 96-well plates were seeded with the human hepatocyte cell line (HepG2) at approximately 8×10^3 cells per well in Eagle's Minimum Essential Medium (EMEM) with Earle's salts and sodium bicarbonate supplemented with 10% heat-inactivated foetal bovine serum 2 mM glutamine and 1% non-essential amino acids (NEAA). The following day serial dilutions of compounds (dissolved and diluted in DMSO) were added to the cells in duplicates. Control wells included an ‘untreated’ control where cells were grown in the presence of 1% DMSO and a ‘medium only’ control (plus 1% DMSO). After 24 hours CCK-8 reagent (10 μl) was added to each well and cell viability was assessed by measuring the absorbance at a wavelength of 450 nm after 2-3 h hours. Only living cells can reduce the tetrazolium salts into coloured formazan products. Results were expressed as 50% growth inhibition (TD50) values compared to ‘untreated’ control.

Molecule	HepG2 cell TD50 [2]	further results
CC(=O)OC[C@H]1O[C@@H]([S-])[C@H](OC(C)=O)[C@@H](OC(C)=O)[C@@H]1OC(C)=O.CCP(CC)CC.[Au+] [Auranofin]		MIC, in vitro growth of V. cholerae (V. cholerae): 2.5 mg/L; MIC, in vitro growth of S. aureus (Oxford strain) [1]: 0.6 to 0.9 mg/L
CO/N=C(\C(=O)N[C@@H]1C(=O)N2C(C(=O)O)=C(COC(C)=O)CS[C@H]12)c1csc(N)n1 [Cefotaxime]		Size of Clearance of Zone (A. baumannii NC13421; antibiotic disk 30 μg): R; Size of Clearance of Zone (E. coli 13400; antibiotic disk 30 μg): 18 mm; Size of Clearance of Zone (E. faecalis DSM13591; antibiotic disk 30 μg): R; Size of Clearance of Zone (K. pneumoniae 13368; antibiotic disk 30 μg): R
CO/N=C(\C(=O)N[C@@H]1C(=O)N2C(C(=O)O)=C(CSc3nc(=O)c(=O)[nH]n3C)CS[C@H]12)c1csc(N)n1 [Ceftriaxone]		Size of Clearance of Zone (A. baumannii NC13421; antibiotic disk 30 μg): R; Size of Clearance of Zone (E. coli 13400; antibiotic disk 30 μg): R; Size of Clearance of Zone (E. faecalis DSM13591; antibiotic disk 30 μg): R; Size of Clearance of Zone (K. pneumoniae 13368; antibiotic disk 30 μg): R
C[P](C)(C)=[Au][N]1CCOCC1=O [Compound 1]	4 µg/mL	
C[P](C)(C)=[Au][N]1CCCCC1=O [Compound 2]	3 µg/mL	
CC[P](CC)(CC)=[Au][N]1CCOCC1=O [Compound 3]	6 µg/mL	
CC[N]([Au]=[P](C)(C)C)C(C)=O [Compound 4]	7 µg/mL	
CN1CC[N]([Au]=[P](C)(C)C)C1=O [Compound 5]	6 µg/mL	
C[P](C)(C)=[Au][N]1CCN(c2ccccc2)C1=O [Compound 6]	9 µg/mL	
C[P](C)(C)=[Au][N]1C(=O)CCC1=O [Compound 7]	11 µg/mL	
C[P](C)(C)=[Au][N]1C(=O)COCC1=O [Compound 8]	9 µg/mL	
C[P](C)(C)=[Au][N]1CCOC1=O [Compound 9]	7 µg/mL	
C[P](C)(C)=[Au][N]1C(=O)c2ccccc2C1=O [Compound 10]	15 µg/mL	
CC[P](CC)(CC)=[Au][N]1C(=O)c2ccccc2C1=O [Compound 11]	4 µg/mL	
C[P](C)(C)=[Au][N]1C(=O)COc2ccccc21 [Compound 12]	4 µg/mL	
C[P](C)(C)=[Au][n]1ccccc1=O [Compound 13]	3 µg/mL	
C[P](C)(C)=[Au][N]1C(=O)CCCC1=O [Compound 14]	7 µg/mL	
C[P](C)(C)=[Au][N]1C(=O)C2CCCN2C1=O (stereo not shown) [Compound 15]	3 µg/mL	
CC1C(=O)[N]([Au]=[P](C)(C)C)C(=O)N1c1ccccc1 (stereo not shown) [Compound 16]	10 µg/mL	
CN1C(=O)[N]([Au]=[P](C)(C)C)C(=O)C1(C)C [Compound 17]	8 µg/mL	
C[P](C)(C)=[Au][N]1CCCOC1=O [Compound 18]	5 µg/mL	
CN1C(=O)[N]([Au]=[P](C)(C)C)C(=O)C12CCCC2 [Compound 19]	13 µg/mL	
C[P](C)(C)=[Au][N]1Cc2ccccc2C1=O [Compound 20]	2 µg/mL	
C[N]([Au]=[P](C)(C)C)S(C)(=O)=O [Compound 21]	4 µg/mL	
C[N]([Au]=[P](C)(C)C)S(=O)(=O)c1ccccc1 [Compound 24]	5 µg/mL	
C[P](C)(C)=[Au][n]1ccn(-c2ccccc2)c1=O [Compound 25]	5 µg/mL	
COc1ccc(N2CC[N]([Au]=[P](C)(C)C)C2=O)cc1 [Compound 26]	6 µg/mL	

Molecule	HepG2 cell TD50 [2]	further results
C[P](C)(C)=[Au][N]1CCN(c2ccc(F)cc2)C1=O [Compound 27]	4 µg/mL	
C[P](C)(C)=[Au][N]1CCCS1(=O)=O [Compound 28]	9 µg/mL	
C[P](C)(C)=[Au][N]1CCCCS1(=O)=O [Compound 29]	3 µg/mL	
CC1(C)OC(=O)[N]([Au]=[P](C)(C)C)C1=O [Compound 30]	3 µg/mL	
C[P](C)(C)=[Au][N]1CCCC1=O [Compound 31]	3 µg/mL	
C[P](C)(C)=[Au][n]1cccn1 [Compound 36]	7.3 µg/mL	
C[P](C)(C)=[Au][n]1ccnn1 [Compound 37]	11.9 µg/mL	
C[P](C)(C)=[Au][n]1cnnc1 [Compound 38]	7 µg/mL	
COc1ccc2c(c1)nc[n]2[Au]=[P](C)(C)C [Compound 39]	9 µg/mL	
C[P](C)(C)=[Au][n]1cnnn1 [Compound 40]	6 µg/mL	
C[P](C)(C)=[Au][n]1cc(C(F)(F)F)cn1 [Compound 41]	16 µg/mL	
C[P](C)(C)=[Au][n]1ncc2cccnc21 [Compound 42]	5 µg/mL	
C[P](C)(C)=[Au][n]1ccnc1 [Compound 43]	4 µg/mL	
C[P](C)(C)=[Au][n]1cnc2ccccc21 [Compound 44]	5 µg/mL	
Cc1nc2ccccc2[n]1[Au]=[P](C)(C)C [Compound 45]	5 µg/mL	
Cc1nnc(C)[n]1[Au]=[P](C)(C)C [Compound 46]	5 µg/mL	
Cc1ncc[n]1[Au]=[P](C)(C)C [Compound 47]	3.9 µg/mL	
C[P](C)(C)=[Au][n]1ccnc1C(F)(F)F [Compound 48]	4 µg/mL	
COc1ccc2c(cn[n]2[Au]=[P](C)(C)C)c1 [Compound 50]	3 µg/mL	
C[P](C)(C)=[Au][n]1cnc2cccnc21 [Compound 51]	3 µg/mL	
C[C@@H](O)[C@H]1C(=O)N2C(C(=O)O)=C(S[C@@H]3CN[C@H](C(=O)Nc4cccc(C(=O)O)c4)C3)[C@H](C)[C@H]12 [Ertapenem]		Size of Clearance of Zone (A. baumannii NC13421; antibiotic disk 10 μg): R; Size of Clearance of Zone (E. coli 13400; antibiotic disk 10 μg): 30 mm; Size of Clearance of Zone (E. faecalis DSM13591; antibiotic disk 10 μg): 14 mm; Size of Clearance of Zone (K. pneumoniae 13368; antibiotic disk 10 μg): R
C[C@@H](O)[C@H]1C(=O)N2C(C(=O)O)=C(SCCN=CN)C[C@H]12 [Imipenem]		Size of Clearance of Zone (A. baumannii NC13421; antibiotic disk 10 μg): R; Size of Clearance of Zone (E. coli 13400; antibiotic disk 10 μg): 29 mm; Size of Clearance of Zone (E. faecalis DSM13591; antibiotic disk 10 μg): 26 mm; Size of Clearance of Zone (K. pneumoniae 13368; antibiotic disk 10 μg): 18 mm
CC(=O)NC[C@H]1CN(c2ccc(N3CCOCC3)c(F)c2)C(=O)O1 [Linezolid]		Size of Clearance of Zone (E. faecalis DSM13591; antibiotic disk 10 μg): 22 mm
C[C@@H](O)[C@H]1C(=O)N2C(C(=O)O)=C(S[C@@H]3CN[C@H](C(=O)N(C)C)C3)[C@H](C)[C@H]12 [Meropenem]		Size of Clearance of Zone (A. baumannii NC13421; antibiotic disk 10 μg): R; Size of Clearance of Zone (E. faecalis DSM13591; antibiotic disk 10 μg): 17 mm; Size of Clearance of Zone (K. pneumoniae 13368; antibiotic disk 10 μg): 22 mm
CN[C@H](CC(C)C)C(=O)N[C@H]1C(=O)N[C@@H](CC(N)=O)C(=O)N[C@H]2C(=O)N[C@H]3C(=O)N[C@H](C(=O)N[C@H](C(=O)O)c4cc(O)cc(O)c4-c4cc3ccc4O)[C@H](O)c3ccc(c(Cl)c3)Oc3cc2cc(c3O[C@@H]2O[C@H](CO)[C@@H](O)[C@H](O)[C@H]2O[C@H]2C[C@](C)(N)[C@H](O)[C@H](C)O2)Oc2ccc(cc2Cl)[C@H]1O [Vancomycin]		Size of Clearance of Zone (E. faecalis DSM13591; antibiotic disk 30 μg): R
Colistin		Size of Clearance of Zone (A. baumannii NC13421; antibiotic disk 10 μg): 11 mm; Size of Clearance of Zone (E. coli 13400; antibiotic disk 10 μg): 12 mm; Size of Clearance of Zone (K. pneumoniae 13368; antibiotic disk 10 μg): 9.5 mm
